From ChEMBL document CHEMBL5537157, “Selective Antitumor Effect and Lower Toxicity of Mitochondrion-Targeting Derivatization of Triptolide” (J Med Chem, 2024)
The source made the active and inactive calls. No cut-off for these calls is given here.

Columns and labels:
NCI-H1975 [1] = assay: Induction of apoptosis in human NCI-H1975 cells at 50 to 1600 nM incubated for 24 hrs by Annexin V-FITC/PI staining based flow cytometry; type: functional, cell-based; details: dose 50-1600 nM
MCF7 = assay: Cytotoxicity against human MCF7 cells assessed as cell growth inhibition incubated for 48 hrs by MTT assay; type: functional, cell-based
PC-3 = assay: Cytotoxicity against human PC-3 cells assessed as cell growth inhibition at 4.5 to 10 nM incubated for 48 hrs by MTT assay relative to control; type: functional; details: dose 4.5-10 nM
[2] = Renal toxicity in zebrafish assessed as yolk sac absorption at 2 uM treated at 3 hrs post-fertilization measured at 48 hrs post-compound treatment by FITC staining based microscopy; design: species or system Danio rerio; details: in vivo
[3] = Renal toxicity in zebrafish assessed as increase in Kim1 expression at 0.5 to 2 uM treated for 48 hrs by RT-qPCR analysis; design: species or system Danio rerio; details: in vivo, dose 0.5-2 µM
NCI-H1975 [4] = assay: Cytotoxicity against human NCI-H1975 cells assessed as cell growth inhibition incubated for 48 hrs by MTT assay; type: functional, cell-based
[5] = Renal toxicity in zebrafish assessed as increase in TNF-alpha expression at 0.5 to 2 uM treated for 48 hrs by RT-qPCR analysis; design: species or system Danio rerio; details: in vivo, dose 0.5-2 µM
[6] = Developmental toxicity in zebrafish AB zygotes assessed as embryo malformation at 0.5 to 2 uM treated at 6 hrs post-fertilization measured at 24 to 72 hrs post-fertilization; design: species or system Danio rerio; details: in vivo, dose lower 0.5 µM, time lower 18 hrs, dose upper 2 µM, time upper 66 hrs
[7] = Renal toxicity in fluorescent transgenic zebrafish at 0.5 to 2 uM treated for 48 hrs by fluorescence microscopy; design: species or system Danio rerio; details: in vivo, dose 0.5-2 µM
[8] = Renal toxicity in zebrafish assessed as FITC dye residue at 0.25 to 1 uM treated for 24 hrs followed by dye treatment measured after 6 hrs by fluorescence microscopy; design: species or system Danio rerio; details: in vivo, 30 h, dose 0.25-1 µM
NCI-H1975 [9] = assay: Cytotoxicity against human NCI-H1975 cells assessed as cell growth inhibition at >41.15 nM incubated for 48 hrs by MTT assay relative to control; type: functional
BEAS-2B [10] = assay: Cytotoxicity against human BEAS-2B cells assessed as cell growth inhibition incubated for 48 hrs by MTT assay; type: toxicity, cell-based
[11] = Cytotoxicity against human BEAS-2B cells assessed as cell growth inhibition at 4.5 to 10 nM incubated for 48 hrs by MTT assay relative to control; type: toxicity, cell-based; details: dose 4.5-10 nM, read-out: Imax
NCI-H1975 [12] = assay: Cytotoxicity against human NCI-H1975 cells assessed as cell growth inhibition at 4.5 to 10 nM incubated for 48 hrs by MTT assay relative to control; type: functional; details: dose 4.5-10 nM
HepG2 = assay: Cytotoxicity against human HepG2 cells assessed as cell growth inhibition at 4.5 to 10 nM incubated for 48 hrs by MTT assay relative to control; type: functional; details: dose 4.5-10 nM
[13] = Toxicity in zebrafish xenografted with human NCI-H1975 cells assessed as animal death at 2 uM; design: species or system Danio rerio
[14] = Toxicity in zebrafish xenografted with human NCI-H1975 cells assessed as body deformity at 1 uM; design: species or system Danio rerio
[15] = Teratogenic toxicity in zebrafish AB zygotes at 0.5 to 2 uM treated at 6 hrs post-fertilization measured at 24 to 72 hrs post-fertilization; design: species or system Danio rerio; details: in vivo, dose lower 0.5 µM, time lower 18 hrs, dose upper 2 µM, time upper 66 hrs
Danio rerio = organism: Danio rerio; assay: Induction of ROS production in zebrafish at 1 to 2 uM measured after 48 hrs by fluorescence microscopy; type: functional, organism-based; details: dose 1-2 µM
[16] = Developmental toxicity in zebrafish AB zygotes assessed as embryo malformation at 2 to 4 uM treated at 6 hrs post-fertilization measured at 24 to 72 hrs post-fertilization; design: species or system Danio rerio; details: in vivo, dose lower 2 µM, time lower 18 hrs, dose upper 4 µM, time upper 66 hrs
[17] = Developmental toxicity in zebrafish AB zygotes assessed as decrease in body length treated at 6 hrs post-fertilization measured at 24 to 72 hrs post-fertilization; design: species or system Danio rerio; details: in vivo, dose lower 0.25 µM, time lower 18 hrs, dose upper 4 µM, time upper 66 hrs
NCI-H1975 [18] = assay: Induction of late apoptosis in human NCI-H1975 cells at 50 to 400 nM incubated for 24 hrs by Annexin V-FITC/PI staining based flow cytometry; type: functional, cell-based; details: dose 50-400 nM
[19] = Developmental toxicity in zebrafish AB zygotes assessed as decrease in hatching rate at 0.25 to 1 uM treated at 6 hrs post-fertilization measured at 24 to 72 hrs post-fertilization; design: species or system Danio rerio; details: in vivo, dose lower 0.25 µM, time lower 18 hrs, dose upper 1 µM, time upper 66 hrs
BEAS-2B [20] = assay: Induction of apoptosis in human BEAS-2B cells assessed as morphological change in nucleus at 50 to 400 nM incubated for 24 hrs by DAPI staining based analysis; type: toxicity, cell-based; details: 0.4 µM, dose 50-400 nM
[21] = Toxicity in zebrafish embryo assessed as liver development at 1 uM with replacement of new growth solution daily by fluorescence microscopy (reference value: 100.00 +/- 8.64 %); type: tissue-based, Danio rerio; details: in vivo
BEAS-2B [22] = assay: Inhibition of mitochondrial membrane potential in human BEAS-2B cells at 200 nM incubated for 24 hrs by JC-1 staining based flow cytometry; type: toxicity, cell-based; details: 0.2 µM
[23] = Toxicity in zebrafish embryo assessed as damage effect in liver function at 1 uM with replacement of new growth solution daily by fluorescence microscopy relative to control; design: species or system Danio rerio; details: in vivo
[24] = Renal toxicity in zebrafish assessed as increase in Kim1 expression at 2 uM treated for 48 hrs by RT-qPCR analysis; design: species or system Danio rerio; details: in vivo
NCI-H460 = assay: Cytotoxicity against human NCI-H460 cells assessed as inhibition of cell viability incubated for 48 hrs by MTT assay; type: functional, cell-based; details: NCI-H460, 48 h
NCI-H1975 [25] = assay: Induction of ROS generation in human NCI-H1975 cells incubated for 24 hrs by DCFH-DA probe based analysis; type: functional, cell-based; details: dose 0.05-0.4 µM
NCI-H1975 [26] = assay: Cytotoxicity against human NCI-H1975 cells assessed as inhibition of cell viability incubated for 48 hrs by MTT assay; type: functional, cell-based; details: NCI-H1975, 48 h
NCI-H1975 [27] = assay: Inhibition of cell proliferation in human NCI-H1975 cells xenografted in zebrafish at 1 to 2 uM measured after 48 hrs by confocal microscopy; type: functional, cell-based; details: dose 1-2 µM
BEAS-2B [28] = assay: Induction of apoptosis in human BEAS-2B cells at 50 to 400 nM incubated for 24 hrs by Annexin V-FITC/PI staining based flow cytometry; type: toxicity, cell-based; details: 0.4 µM, dose 50-400 nM
NCI-H1975 [29] = assay: Inhibition of mitochondrial membrane potential in human NCI-H1975 cells at 200 nM incubated for 24 hrs by JC-1 staining based flow cytometry; type: functional, cell-based
[30] = Toxicity in zebrafish embryo assessed as damage effect in liver development at 1 uM with replacement of new growth solution daily by fluorescence microscopy relative to control; type: tissue-based, Danio rerio; details: in vivo
[31] = Toxicity in zebrafish embryo assessed as liver function at 1 uM with replacement of new growth solution daily by fluorescence microscopy (reference value: 100 +/- 8.89 %); type: tissue-based, Danio rerio; details: in vivo
[32] = Toxicity in zebrafish embryo assessed as degree of periocular edema at 4 uM pretreated with compound followed by replacement of growth liquid by microscopy (reference value: 0.00 %); design: species or system Danio rerio; details: in vivo, 24 h
NCI-H1975 [33] = assay: Induction of early apoptosis in human NCI-H1975 cells at 50 to 400 nM incubated for 24 hrs by Annexin V-FITC/PI staining based flow cytometry; type: functional, cell-based; details: dose 50-400 nM

SMILES: CC(C)[C@]12O[C@H]1[C@@H]1O[C@@]13[C@@]1(C)CCC4=C(COC4=O)[C@@H]1C[C@@H]1O[C@@]13C2=O [TRIPTONIDE]
- Activity (NCI-H1975 [1]): Active
- inhibition (MCF7): Dose-Dependent Effect
- Imax (PC-3): ~60%
- Activity [2]: Toxic
- Activity [3]: Toxic
- inhibition (NCI-H1975 [4]): Dose-Dependent Effect
- Activity [5]: Toxic
- Activity [6]: Toxic
- Activity [7]: Toxic
- Activity [8]: Toxic
- inhibition (INH) (NCI-H1975 [9]): <50%
- inhibition (INH) (BEAS-2B [10]): Dose-Dependent Effect
- Emax at 48 h [11]: ~40%
- Imax (NCI-H1975 [12]): ~40%
- inhibition (INH) (HepG2): 80%
- Activity [13]: Toxic
- Activity [14]: Toxic
- Activity [15]: Toxic
- Activity (Danio rerio): Active

SMILES: CC(C)[C@]12O[C@H]1[C@@H]1O[C@]13[C@]1(O[C@H]1C[C@H]1C4=C(CC[C@@]13C)C(=O)OC4)[C@@H]2OC(=O)CCCCCCCC[n+]1ccc(/C=C/c2c[nH]c3ccccc23)cc1.[Br-]
- Activity [16]: Toxic
- Activity [17]: Dose-Dependent Effect
- Activity (NCI-H1975 [18]): Active
- Activity [19]: Non-Toxic
- Activity (BEAS-2B [20]): Non-Toxic
- Activity [21]: 76.24%
- Activity (BEAS-2B [22]): Non-Toxic
- Activity [23]: 72.82%
- Activity [24]: Toxic
- IC50 (NCI-H460): 4.78 µM
- Activity (NCI-H1975 [25]): Dose-Dependent Effect
- IC50 (NCI-H1975 [26]): 210 nM
- inhibition (NCI-H1975 [27]): Active
- Activity (BEAS-2B [28]): Non-Toxic
- inhibition (NCI-H1975 [29]): Active
- Activity [30]: 23.76%
- Activity [31]: 27.18%
- Activity [32]: 100%
- Activity (NCI-H1975 [33]): Active
